The values below come from US20080103158A1, “METHODS FOR TREATING DELAYING THE PROGRESSION OF ALZHEIMER'S DISEASE WITH HETEROCYCLIC COMPOUNDS” (ZENYAKU KOGYO KABUSHIKI KAISHA, priority 2006, published 2008).

As a reminder, the melting point is the temperature, or range, at which the solid turns liquid. With `CCCCC1(CCCC)C(=O)N=C2C=CC=CN21` [Compound 34, 3,3-dibutylimidazo[1,2-a]pyridin-2(3H)-one], the melting point was in the range of 100.5 to 102 °C.

Turning to `CC1=CC2=NC(=O)C(Cc3ccccc3)(Cc3ccccc3)N2C(C)=C1` [Compound 10, 3,3-dibenzyl-5,7-dimethylimidazo[1,2-a]pyridin-2(3H)-one], the melting point was 237 to 238 °C.

In the case of `N#Cc1ccc(CC2(Cc3ccc(C#N)cc3)C(=O)N=C3C=CC=CN32)cc1` [Compound 22, 3,3-bis(4-cyanobenzyl)imidazo[1,2-a]pyridin-2(3H)-one], the melting point is 294 °C (dec.).

On to `O=C1N=C2C3=C(C=CN2C12CCCC2)CCCC3` [Compound 74, spiro[7,8,9,10-tetrahydroimidazo[2,1-a]isoquinolin-2(3H)-one-3,1′-cyclopentane]], for which the melting point was 270.5 °C (dec.).

As to `Oc1nc2ccccn2c1Cc1ccc2ccccc2c1` [Compound 52, 2-hydroxy-3-(2-naphthylmethyl)imidazo[1,2-a]pyridine], the melting point was 205 °C (dec.).

`CC(=O)NC1=CC=CN2C1=NC(=O)C2(Cc1ccccc1)Cc1ccccc1` [Compound 31, 8-acetylamino-3,3-dibenzylimidazo[1,2-a]pyridin-2(3H)-one]: the melting point was in the range of 235 to 237 °C.

On to `O=C1N=C2C=CC=CN2C1(Cc1ccco1)Cc1ccco1` [Compound 32, 3,3-bis(2-furylmethyl)imidazo[1,2-a]pyridin-2(3H)-one], for which the melting point is 205 °C (dec.).

For the compound `O=C1N=C2C=CC=CN2C1(C1C=CCCC1)C1C=CCCC1` (stereo not shown) [Compound 67, 3,3-bis(2-cyclohexenyl)imidazo[1,2-a]pyridin-2(3H)-one], the melting point fell in the range of 245 to 247 °C.

`C=CCC1(CC=C)C(=O)N=C2C(OCC3CC3)=CC=CN21` [Compound 79, 8-cyclopropylmethyloxy-3,3-diallylimidazo[1,2-a]pyridin-2(3H)-one] came in with a melting point of 139 to 142 °C.

For `COC1=CC=CN2C1=NC(=O)C21CC=CC1` [Compound 82, spiro[8-methoxyimidazo[1,2-a]pyridin-2(3H)-one-3,4′-(1′-cyclopentene)]], the melting point fell in the range of 200 to 202 °C.

For the compound `O=C1N=C2C=CC=CN2C12Cc1cccc(F)c1C2` (stereo not shown) [Compound 56, spiro[imidazo[1,2-a]pyridin-2(3H)-one-3,2′-(4′-fluoroindan)]], the melting point is 148 °C (dec.).

Compound `O=C1N=C2C=CC=CN2C12Cc1ccc(C(F)(F)F)cc1C2` (stereo not shown) [Compound 64, spiro[imidazo[1,2-a]pyridin-2(3H)-one-3,2′-(5′-trifluoromethylindan)]] gave a melting point of 176.5 to 179.5 °C.

`NC1=CC=CN2C1=NC(=O)C2(Cc1ccccc1)Cc1ccccc1` [Compound 39, 8-amino-3,3-dibenzylimidazo[1,2-a]pyridin-2(3H)-one] registered a melting point of 283 to 285 °C.

For the compound `O=C1N=C2C=CC=CN2C1(Cc1cccc(Cl)c1)Cc1cccc(Cl)c1` [Compound 19, 3,3-bis(3-chlorobenzyl)imidazo[1,2-a]pyridin-2(3H)-one], the melting point fell in the range of 271 to 272 °C.

`CCCC1(CCC)C(=O)N=C2C=CC=CN21` [Compound 29, 3,3-dipropylimidazo[1,2-a]pyridin-2(3H)-one] gave a melting point of 73 to 75 °C.

`O=C1N=C2SC=CN2C1(Cc1ccccc1)Cc1ccccc1` [Compound 44, 5,5-dibenzylimidazo[2,1-b]thiazol-6(5H)-one]: the melting point was more than 300 °C.

In turn, `C=CCOC1=CC=CN2C1=NC(=O)C2(Cc1ccccc1)Cc1ccccc1` [Compound 6, 8-allyloxy-3,3-dibenzylimidazo[1,2-a]pyridin-2(3H)-one] displayed a melting point of 214 to 215 °C.

As to `O=C1N=C2C=CC=CN2C12Cc1ccc3ccccc3c1C2` (stereo not shown) [Compound 65, spiro[imidazo[1,2-a]pyridin-2(3H)-one-3,2′-benzo[e]indan]], the melting point is 256 °C (dec.).

`COC1=CC=CN2C1=NC(=O)C2(Cc1ccccc1)Cc1ccccc1` [Compound 3, 3,3-dibenzyl-8-methoxyimidazo[1,2-a]pyridin-2(3H)-one] showed a melting point of 274 to 275 °C.

For the compound `CC1=CN2C(=NC(=O)C2(Cc2ccccc2)Cc2ccccc2)S1` [Compound 48, 5,5-dibenzyl-2-methylimidazo[2,1-b]thiazol-6(5H)-one], the melting point was more than 300 °C.

For the compound `O=C1N=C2c3ccccc3C=CN2C12Cc1cc3nsnc3cc1C2` [Compound 62, spiro[imidazo[2,1-a]isoquinolin-2(3H)-one-3,2′-((1,2,5-thiadiazo)[4,5-c]indan)]], the melting point is 271.5 °C (dec.).

Take `O=C1N=C2CCCCN2C1(C1CCCCC1)C1CCCCC1` [Compound 72, 3,3-dicyclohexyl-5,6,7,8-tetrahydroimidazo[1,2-a]pyridin-2(3H)-one]: the melting point is 218 to 220 °C.

The compound `COC(=O)c1ccc(CC2(Cc3ccc(C(=O)OC)cc3)C(=O)N=C3C=CC=CN32)cc1` [Compound 40, 3,3-bis(4-methoxycarbonylbenzyl)imidazo[1,2-a]pyridin-2(3H)-one] yielded a melting point of 289 to 290 °C.

Regarding `C=CCC1(CC=C)C(=O)N=C2C(OCc3ccccc3)=CC=CN21` [Compound 25, 3,3-diallyl-8-benzyloxyimidazo[1,2-a]pyridin-2(3H)-one], the melting point is 160 to 162 °C.

For `O=C1N=C2c3ccccc3C=CN2C12Cc1ccccc1C2` [Compound 60, spiro[imidazo[2,1-a]isoquinolin-2(3H)-one-3,2′-indan]], the melting point lay in the range of 201 to 203 °C.

Regarding `C/C=C/CC1(C/C=C/C)C(=O)N=C2N=CC=CN21` [Compound 55, 3,3-di(2-butenyl)imidazo[1,2-a]pyrimidin-2(3H)-one], the melting point is 149.5 °C (dec.).

Regarding `Cc1ccc(CC2(Cc3ccc(C)cc3)C(=O)N=C3SC=CN32)cc1` [Compound 46, 5,5-bis(4-methylbenzyl)imidazo[2,1-b]thiazol-6(5H)-one], the melting point is more than 300 °C.

Regarding `O=C1N=C2C(Cl)=CC(Cl)=CN2C1(Cc1ccccc1)Cc1ccccc1` [Compound 13, 3,3-dibenzyl-6,8-dichloroimidazo[1,2-a]pyridin-2(3H)-one], the melting point is 260 to 261 °C.

Consider `O=C1N=C2N=CC=CN2C1(Cc1cccs1)Cc1cccs1` [Compound 50, 3,3-bis(2-thienylmethyl)imidazo[1,2-a]pyrimidin-2(3H)-one], for which the melting point is 192 °C (dec.).

Regarding `CC(C)OC1=CC=CN2C1=NC(=O)C2(Cc1ccccc1)Cc1ccccc1` [Compound 2, 3,3-dibenzyl-8-isopropoxyimidazo[1,2-a]pyridin-2(3H)-one], the melting point fell in the range of 247 to 248 °C.

The compound `COc1ccc2c(c1)CC1(C2)C(=O)N=C2C=CC=CN21` (stereo not shown) [Compound 57, spiro[imidazo[1,2-a]pyridin-2(3H)-one-3,2′-(5′-methoxyindan)]] gave a melting point of 150 to 152 °C.

For the compound `N#Cc1ccc(CC2(Cc3ccc(C#N)cc3)C(=O)N=C3SC=CN32)cc1` [Compound 47, 5,5-bis(4-cyanobenzyl)imidazo[2,1-b]thiazol-6(5H)-one], the melting point lay within 264 to 267 °C.

In the case of `O=C1N=C2C=CC=CN2C12Cc1cc3ccccc3cc1C2` [Compound 53, spiro[imidazo[1,2-a]pyridin-2(3H)-one-3,2′-benzo[f]indan]], the melting point was 214 °C (dec.).

Turning to `O=C1N=C2C=CC=CN2C1(Cc1ccc(F)cc1F)Cc1ccc(F)cc1F` [Compound 28, 3,3-bis(2,4-difluorobenzyl)imidazo[1,2-a]pyridin-2(3H)-one], the melting point was 269 to 271 °C.

`C=CCC1(CC=C)C(=O)N=C2c3ccccc3C=CN21` [Compound 68, 3,3-diallylimidazo[2,1-a]isoquinolin-2(3H)-one] returned a melting point of 108 to 110 °C.

`O=C1N=C2C=CC=CN2C12Cc1ccc(I)cc1C2` (stereo not shown) [Compound 58, spiro[imidazo[1,2-a]pyridin-2(3H)-one-3,2′-(5′-iodoindan)]] yielded a melting point of 167 to 171 °C.

Turning to `O=C1N=C2C(OCC3CC3)=CC=CN2C12CC=CC2` [Compound 83, spiro[8-cyclopropylmethyloxyimidazo[1,2-a]pyridin-2(3H)-one-3,4′-(1′-cyclopentene)]], the melting point lay within 134 to 137 °C.

Turning to `CC1=CC=CN2C1=NC(=O)C2(Cc1ccncc1)Cc1ccncc1` [Compound 16, 8-methyl-3,3-bis(4-pyridylmethyl)imidazo[1,2-a]pyridin-2(3H)-one], the melting point lay within 228 to 230 °C.

The compound `CC(c1ccccc1)C1(C(C)c2ccccc2)C(=O)N=C2C(OCc3ccccc3)=CC=CN21` (stereo not shown) [Compound 8, 8-benzyloxy-3,3-bis(1-phenylethyl)imidazo[1,2-a]pyridin-2(3H)-one] came in with a melting point of 234 to 235 °C.

For `O=C1N=C2C(NCc3ccccc3)=CC=CN2C1(Cc1ccccc1)Cc1ccccc1` [Compound 37, 3,3-dibenzyl-8-benzylaminoimidazo[1,2-a]pyridin-2(3H)-one], the melting point worked out at 250 °C.

In turn, `O=C1N=C2C(OCc3ccccc3)=CC=CN2C1(Cc1ccccc1)Cc1ccccc1` [Compound 7, 3,3-dibenzyl-8-benzyloxyimidazo[1,2-a]pyridin-2(3H)-one] gave a melting point of 240 to 241 °C.

For the compound `O=C1N=C2C=CC=CN2C1Cc1ccccc1` (stereo not shown) [Compound 54, 3-benzylimidazo[1,2-a]pyridin-2(3H)-one], the melting point was 182 °C (dec.).

`O=C1N=C2C(OCc3ccccc3)=CC=CN2C12CC=CC2` [Compound 70, spiro[8-benzyloxyimidazo[1,2-a]pyridin-2(3H)-one-3,4′-(1′-cyclopentene)]] gave a melting point of 178.5 to 180.5 °C.

In the case of `O=C1N=C2C(OCC3CC3)=CC=CN2C1(Cc1ccccc1)Cc1ccccc1` [Compound 4, 3,3-dibenzyl-8-cyclopropylmethyloxy-imidazo[1,2-a]pyridin-2(3H)-one], the melting point lay in the range of 236 to 237 °C.

As to `O=C1N=C2C=CC(Cl)=CN2C1(Cc1ccccc1)Cc1ccccc1` [Compound 5, 3,3-dibenzyl-6-chloroimidazo[1,2-a]pyridin-2(3H)-one], the melting point was in the range of 246 to 248 °C.

In turn, `O=C1N=C2C=CC=CN2C1(Cc1ccc(-c2ccccc2)cc1)Cc1ccc(-c2ccccc2)cc1` [Compound 21, 3,3-bis(4-biphenylmethyl)imidazo[1,2-a]pyridin-2(3H)-one] gave a melting point of more than 300 °C.
